tested on: barnyardgrass; test: Test Example 3: paddy pot test, application under submerged conditions; type: in vivo, Echinochloa crus-galli L.; settings: active ingredient 250 g/ha; submerged application at 0.5 leaf stage; visually observed 14 days after application; 0 = non-treated, 100 = complete kill
Method in brief: (§1)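 Visual growth-control rating (0 = untreated, 100 = complete kill) 14 days after treatment. The formulated compound, as a diluted wettable powder or emulsifiable concentrate, went into 3–4 cm flood water at a predetermined active-ingredient dose once the weeds reached 0.5 leaf stage (wapato: primary leaf stage).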

Point of comparison: `CC(C)C(c1cnccc1Cl)N(C)C(=O)Cc1ccc(Cl)cc1` (stereo not drawn) [I-82], “Growth controlling degree (%) Barnyardgrass” value 98%. Against it:
- CC(C)C(c1cnccc1C(F)(F)F)N(C)C(=O)C=Cc1ccc(F)cc1 (stereo not drawn) [I-172] — higher, 100%
- Cc1ccc(CC(=O)N(C)C(c2cnccc2C(F)(F)F)C(C)C)cc1 (stereo not drawn) [I-94] — higher, 100%

tested on: rice; test: Test Example 2: soil surface treatment, upland pot test; type: in vivo, Oryza sativa L.; settings: active ingredient 500 g/ha, observed 20th to 28th day
Excerpt: (§2) Upland field soil was put into a 1/170,000 ha pot, and seed of various plants (barnyardgrass, crabgrass, green foxtail, redroot pigweed, prickly sida, velvetleaf, rice, wheat, corn, soybean) were sown. On the 1st day after the sowing, a wettable powder or emulsifiable concentrate having the compound of the present invention formulated in accordance with a usual formulation method, was weighed so that the active ingredient would be a predetermined amount, and diluted with water in an amount of 1,500 L/ha. The herbicide thus adjusted was applied by a small size sprayer for soil surface treatment. On the 20th to 28th days after the application of the herbicide, the growth of the respective plants was visually observed, and the herbicidal effects were evaluated by the growth controlling degrees (%) ranging from 0 (equivalent to the non-treated plot) to 100 (complete kill), whereby the results shown in Table 4, were obtained.

Point of comparison: `CC(C)C(c1cnccc1Cl)N(C)C(=O)Cc1ccc(Cl)cc1` (stereo not drawn) [I-82], “Growth controlling degree (%) Rice” value 30%. Against it:
- CC(C)C(c1cnccc1C(F)(F)F)N(C)C(=O)C=Cc1ccc(F)cc1 (stereo not drawn) [I-172] — lower, 20%
- Cc1ccc(CC(=O)N(C)C(c2cnccc2C(F)(F)F)C(C)C)cc1 (stereo not drawn) [I-94] — lower, 10%

tested on: crabgrass; test: as above; type: in vivo, Digitaria sanguinalis L.; settings: active ingredient 500 g/ha, observed 20th to 28th day
Excerpt: as §2

Point of comparison: `CC(C)C(c1cnccc1Cl)N(C)C(=O)Cc1ccc(Cl)cc1` (stereo not drawn) [I-82], “Growth controlling degree (%) Crabgrass” value 90%. Against it:
- CC(C)C(c1cnccc1C(F)(F)F)N(C)C(=O)C=Cc1ccc(F)cc1 (stereo not drawn) [I-172] — higher, 98%
- Cc1ccc(CC(=O)N(C)C(c2cnccc2C(F)(F)F)C(C)C)cc1 (stereo not drawn) [I-94] — higher, 100%

tested on: japanese bulrush; test: Test Example 3: paddy pot test, application under submerged conditions; type: in vivo, Scirpus juncoides; settings: active ingredient 250 g/ha; submerged application at 0.5 leaf stage; visually observed 14 days after application; 0 = non-treated, 100 = complete kill
Method in brief: as §1

Point of comparison: `CC(C)C(c1cnccc1Cl)N(C)C(=O)Cc1ccc(Cl)cc1` (stereo not drawn) [I-82], “Growth controlling degree (%) Japanese bulrush” value 98%. Against it:
- CC(C)C(c1cnccc1C(F)(F)F)N(C)C(=O)C=Cc1ccc(F)cc1 (stereo not drawn) [I-172] — the same, 98%
- Cc1ccc(CC(=O)N(C)C(c2cnccc2C(F)(F)F)C(C)C)cc1 (stereo not drawn) [I-94] — the same, 98%

tested on: rice (var. Nihonbare); test: Test Example 3: paddy pot test, transplanted rice; type: in vivo, Oryza sativa L.; settings: active ingredient 250 g/ha, applied 4th day after transplantation, visually observed 21st day after application, 0 = non-treated, 100 = complete kill
Method in brief: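 Rice (var. Nihonbare) at 2 leaf stage transplanted 3 cm deep into puddled paddy soil under 3–4 cm flooding; on day 4 after transplanting, diluted wettable powder or emulsifiable concentrate applied by pipette under submerged conditions at a set active-ingredient dose. Growth scored visually 21 days after application, 0 (untreated) to 100 (complete kill) %.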

Point of comparison: `Cc1ccc(CC(=O)N(C)C(c2cnccc2C(F)(F)F)C(C)C)cc1` (stereo not drawn) [I-94], “Growth controlling degree (%) Rice” value 0%. Against it:
- CC(C)C(c1cnccc1C(F)(F)F)N(C)C(=O)C=Cc1ccc(F)cc1 (stereo not drawn) [I-172] — the same, 0%
- CC(C)C(c1cnccc1Cl)N(C)C(=O)Cc1ccc(Cl)cc1 (stereo not drawn) [I-82] — higher, 30%

tested on: green foxtail; test: Test Example 2: soil surface treatment, upland pot test; type: in vivo, Setaria viridis L.; settings: active ingredient 500 g/ha, observed 20th to 28th day
Excerpt: as §2

Point of comparison: `Cc1ccc(CC(=O)N(C)C(c2cnccc2C(F)(F)F)C(C)C)cc1` (stereo not drawn) [I-94], “Growth controlling degree (%) Green foxtail” value 100%. Against it:
- CC(C)C(c1cnccc1C(F)(F)F)N(C)C(=O)C=Cc1ccc(F)cc1 (stereo not drawn) [I-172] — lower, 95%
- CC(C)C(c1cnccc1Cl)N(C)C(=O)Cc1ccc(Cl)cc1 (stereo not drawn) [I-82] — lower, 70%

tested on: japanese ribbon wapato; test: Test Example 3: paddy pot test, application under submerged conditions; type: in vivo, Sagittaria pygniaea; settings: active ingredient 250 g/ha; submerged application at primary leaf stage; visually observed 14 days after application; 0 = non-treated, 100 = complete kill
Method in brief: as §1

Point of comparison: `Cc1ccc(CC(=O)N(C)C(c2cnccc2C(F)(F)F)C(C)C)cc1` (stereo not drawn) [I-94], “Growth controlling degree (%) Japanese ribbon wapato” value 90%. Against it:
- CC(C)C(c1cnccc1C(F)(F)F)N(C)C(=O)C=Cc1ccc(F)cc1 (stereo not drawn) [I-172] — higher, 95%
- CC(C)C(c1cnccc1Cl)N(C)C(=O)Cc1ccc(Cl)cc1 (stereo not drawn) [I-82] — lower, 0%

tested on: corn; test: Test Example 2: soil surface treatment, upland pot test; type: in vivo, Zea mays L.; settings: active ingredient 500 g/ha, observed 20th to 28th day
Excerpt: as §2

Point of comparison: `Cc1ccc(CC(=O)N(C)C(c2cnccc2C(F)(F)F)C(C)C)cc1` (stereo not drawn) [I-94], “Growth controlling degree (%) Corn” value 10%. Against it:
- CC(C)C(c1cnccc1C(F)(F)F)N(C)C(=O)C=Cc1ccc(F)cc1 (stereo not drawn) [I-172] — the same, 10%
- CC(C)C(c1cnccc1Cl)N(C)C(=O)Cc1ccc(Cl)cc1 (stereo not drawn) [I-82] — the same, 10%

tested on: prickly sida; test: as above; type: in vivo, Sida spinosa L.; settings: active ingredient 500 g/ha, observed 20th to 28th day
Excerpt: as §2

Point of comparison: `CC(C)C(c1cnccc1C(F)(F)F)N(C)C(=O)C=Cc1ccc(F)cc1` (stereo not drawn) [I-172], “Growth controlling degree (%) Prickly sida” value 80%. Against it:
- Cc1ccc(CC(=O)N(C)C(c2cnccc2C(F)(F)F)C(C)C)cc1 (stereo not drawn) [I-94] — higher, 100%
- CC(C)C(c1cnccc1Cl)N(C)C(=O)Cc1ccc(Cl)cc1 (stereo not drawn) [I-82] — lower, 0%

tested on: soybean; test: as above; type: in vivo, Glycine max Merr.; settings: active ingredient 500 g/ha, observed 20th to 28th day
Excerpt: as §2

Point of comparison: `CC(C)C(c1cnccc1Cl)N(C)C(=O)Cc1ccc(Cl)cc1` (stereo not drawn) [I-82], “Growth controlling degree (%) Soyabean” value 0%. Against it:
- CC(C)C(c1cnccc1C(F)(F)F)N(C)C(=O)C=Cc1ccc(F)cc1 (stereo not drawn) [I-172] — the same, 0%
- Cc1ccc(CC(=O)N(C)C(c2cnccc2C(F)(F)F)C(C)C)cc1 (stereo not drawn) [I-94] — the same, 0%

tested on: velvetleaf; test: as above; type: in vivo, Abutilon theophrasti MEDIC.; settings: active ingredient 500 g/ha, observed 20th to 28th day
Excerpt: as §2

Point of comparison: `Cc1ccc(CC(=O)N(C)C(c2cnccc2C(F)(F)F)C(C)C)cc1` (stereo not drawn) [I-94], “Growth controlling degree (%) Velvetleaf” value 80%. Against it:
- CC(C)C(c1cnccc1C(F)(F)F)N(C)C(=O)C=Cc1ccc(F)cc1 (stereo not drawn) [I-172] — lower, 10%
- CC(C)C(c1cnccc1Cl)N(C)C(=O)Cc1ccc(Cl)cc1 (stereo not drawn) [I-82] — lower, 0%

tested on: barnyardgrass; test: as above; type: in vivo, Echinochloa crus-galli L.; settings: active ingredient 500 g/ha, observed 20th to 28th day
Excerpt: as §2

Point of comparison: `Cc1ccc(CC(=O)N(C)C(c2cnccc2C(F)(F)F)C(C)C)cc1` (stereo not drawn) [I-94], “Growth controlling degree (%) Barnyardgrass” value 100%. Against it:
- CC(C)C(c1cnccc1C(F)(F)F)N(C)C(=O)C=Cc1ccc(F)cc1 (stereo not drawn) [I-172] — lower, 40%
- CC(C)C(c1cnccc1Cl)N(C)C(=O)Cc1ccc(Cl)cc1 (stereo not drawn) [I-82] — lower, 80%

tested on: redroot pigweed; test: as above; type: in vivo, Amaranthus retroflexus L.; settings: active ingredient 500 g/ha, observed 20th to 28th day
Excerpt: as §2

Point of comparison: `Cc1ccc(CC(=O)N(C)C(c2cnccc2C(F)(F)F)C(C)C)cc1` (stereo not drawn) [I-94], “Growth controlling degree (%) Redroot pigweed” value 98%. Against it:
- CC(C)C(c1cnccc1C(F)(F)F)N(C)C(=O)C=Cc1ccc(F)cc1 (stereo not drawn) [I-172] — lower, 60%
- CC(C)C(c1cnccc1Cl)N(C)C(=O)Cc1ccc(Cl)cc1 (stereo not drawn) [I-82] — lower, 60%
